Test results as given in US9284307B2, “Macrocyclic serine protease inhibitors” (Idenix Pharmaceuticals LLC, priority 2009, dated 2016).

What was measured:
[1] = molecular target: T1, CYP2C19 (Homo sapiens, UniProt P33261); experiment: In vitro CYP450 inhibition screen, luminogenic assay, CYP2C19; format: in vitro ADME; details: probe substrate Luciferin-H EGE, average of two independent experiments, read-out: IC50 (μM) or % Inhibition at 20 μM, CYP450 2C19
T1 construct: purchased BD Bioscience
Method: (§1) CYP2C8, 2C9, 2C19 and 2D6 (BD Bioscience) inhibition luminogenic assay was performed as per the protocol provided by Promega (P450-Glo™ Assay Technical Bulletin #TB325, P450-Glo™ Screening Systems Technical Bulletin #TB340). Test articles were prepared as 10 mM stock solutions in DMSO.
(§2) Data represent the average of two independent experiments. A represents inhibition of 5 to 10%. B represents inhibition of >10% to 20%. C represents inhibition of >20% to 30%. D represents inhibition of >30% to 40%. I represents an IC50 of 5 to 9 μM.

[2] = molecular target: T2, CYP2C8 (Homo sapiens, UniProt P10632); experiment: In vitro CYP450 inhibition screen, luminogenic assay, CYP2C8; format: in vitro ADME; details: probe substrate Luciferin-ME, average of two independent experiments
T2 construct: purchased BD Bioscience
Method: as §1, §2

[3] = molecular target: T3, CYP2B6 (Homo sapiens, UniProt P20813); experiment: In vitro CYP450 inhibition screen, fluorogenic assay, CYP2B6; format: in vitro ADME; details: probe substrate 7-Ethoxy-4-trifluoromethylcoumarin, average of two independent experiments
T3 construct: purchased BD Bioscience 459220
Method: (§3) CYP1A2 (BD Bioscience Cat #459500), CYP2B6 (BD Bioscience cat #459220), and CYP3A4 (BD Bioscience Cat #459100) inhibition fluorogenic assays were performed according to the manufacturer's protocol. Test articles were prepared as 10 mM stock solutions in DMSO.
as §2

[4] = molecular target: T4, CYP3A4 (Homo sapiens, UniProt P08684); experiment: In vitro CYP450 inhibition screen, fluorogenic assay, CYP3A4; format: in vitro ADME; details: probe substrate 7-Benzyloxy-trifluoromethylcoumarin, average of two independent experiments, read-out: IC50 (μM) or % Inhibition at 20 μM, CYP450 3A4
T4 construct: purchased BD Bioscience 459100
Method: as §3, §2

[5] = tested on: HCV genotype 1a H77 strain subgenomic luciferase replicon (H1a-luc) in Huh-7 cells; experiment: Luciferase replicon assay, genotype 1a (H1a-luc); format: cell-based; details: Hepatitis C virus, Huh-7, 72 h, read-out: EC50 Against Relpicon 1a
Method: The HCV luciferase replicon assay measures the ability of a test compound to inhibit HCV replication in cell culture after 3 days of treatment in a human hepatoma cell line (Huh-7) bearing a HCV replicon containing a luciferase-neomycin phosphotransferase fusion gene. The inhibition of HCV replication was measured by quantification of luciferase protein expression. Briefly, Huh-7 cells containing either the HCV genotype 1a H77 strain or genotype 1b Con1 strain subgenomic luciferase replicon (H1a-luc or Zluc, respectively) were grown in DMEM containing glucose, L-glutamine and sodium pyruvate, 10% fetal bovine serum (FBS), 100 IU/mL penicillin, 100 μg/mL streptomycin, 2 mM GlutaMAX, non-essential amino acids and 0.25 (H1a-luc) or 0.5 (Zluc) mg/mL G418. GlutaMAX was obtained from Invitrogen. Corp.; all other media reagents were obtained from Mediatech, Inc. For dose-response testing, the cells were seeded in 96-well plates at 1×10^4 (H1a-luc) or 7.5×10^3 (Zluc) cells/well in a volume of 50 μL, and incubated at 37° C./5% CO2. […] The assay plates were shaken for 3 minutes at room temperature and luciferase activity for each well was measured with a 1 sec read time on the Victor^3V multilabel counter using a 700 nm cut-off filter (Perkin Elmer). EC50 values were calculated from dose response curves from the resulting best-fit equations determined by Microsoft Excel and XLfit 4.1 software.

[6] = Cytotoxicity evaluation (Cell Titer 96 AQueous One), Table 2; format: cell-based; details: human; cellular viability; cell line not given
Method: For cytotoxicity evaluation, H1a-luc or Zluc cells were treated with compounds as described above and cellular viability was monitored using the Cell Titer 96 AQueous One Solution Cell Proliferation Assay (Promega). Plates were then read at 490 nm in a Victor^3V 1420 multilabel counter (Perkin Elmer) and CC50 concentrations were determined using Microsoft Excel and XLfit 4.1 software.

T4 sequence (P08684 whole entry): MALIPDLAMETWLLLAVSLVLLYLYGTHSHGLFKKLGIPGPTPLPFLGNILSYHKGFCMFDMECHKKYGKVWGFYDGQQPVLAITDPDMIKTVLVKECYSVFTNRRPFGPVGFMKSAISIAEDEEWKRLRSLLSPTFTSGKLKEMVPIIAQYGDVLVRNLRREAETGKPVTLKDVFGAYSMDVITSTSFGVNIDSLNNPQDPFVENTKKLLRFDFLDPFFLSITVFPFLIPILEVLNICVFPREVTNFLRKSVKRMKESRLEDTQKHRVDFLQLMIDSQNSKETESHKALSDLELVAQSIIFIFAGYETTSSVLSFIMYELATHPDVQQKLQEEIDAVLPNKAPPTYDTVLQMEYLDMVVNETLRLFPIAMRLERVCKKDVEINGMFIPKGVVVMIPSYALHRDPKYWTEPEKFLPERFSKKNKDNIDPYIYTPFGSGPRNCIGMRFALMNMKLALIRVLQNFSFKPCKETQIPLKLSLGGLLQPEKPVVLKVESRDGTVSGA
T3 sequence (P20813 whole entry): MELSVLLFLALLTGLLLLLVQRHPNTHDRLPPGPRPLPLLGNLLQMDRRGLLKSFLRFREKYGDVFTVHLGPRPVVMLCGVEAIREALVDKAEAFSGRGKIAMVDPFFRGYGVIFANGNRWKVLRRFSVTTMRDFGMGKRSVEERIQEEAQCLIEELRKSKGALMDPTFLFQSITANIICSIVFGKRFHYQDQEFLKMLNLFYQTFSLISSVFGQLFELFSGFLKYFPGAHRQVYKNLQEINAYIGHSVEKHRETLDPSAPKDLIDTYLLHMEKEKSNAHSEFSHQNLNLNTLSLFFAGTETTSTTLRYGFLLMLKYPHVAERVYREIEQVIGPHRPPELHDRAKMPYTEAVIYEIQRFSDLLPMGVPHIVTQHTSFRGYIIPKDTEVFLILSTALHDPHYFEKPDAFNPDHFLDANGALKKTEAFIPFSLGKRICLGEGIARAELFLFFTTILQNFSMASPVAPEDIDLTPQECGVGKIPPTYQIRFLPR
T2 sequence (P10632 whole entry): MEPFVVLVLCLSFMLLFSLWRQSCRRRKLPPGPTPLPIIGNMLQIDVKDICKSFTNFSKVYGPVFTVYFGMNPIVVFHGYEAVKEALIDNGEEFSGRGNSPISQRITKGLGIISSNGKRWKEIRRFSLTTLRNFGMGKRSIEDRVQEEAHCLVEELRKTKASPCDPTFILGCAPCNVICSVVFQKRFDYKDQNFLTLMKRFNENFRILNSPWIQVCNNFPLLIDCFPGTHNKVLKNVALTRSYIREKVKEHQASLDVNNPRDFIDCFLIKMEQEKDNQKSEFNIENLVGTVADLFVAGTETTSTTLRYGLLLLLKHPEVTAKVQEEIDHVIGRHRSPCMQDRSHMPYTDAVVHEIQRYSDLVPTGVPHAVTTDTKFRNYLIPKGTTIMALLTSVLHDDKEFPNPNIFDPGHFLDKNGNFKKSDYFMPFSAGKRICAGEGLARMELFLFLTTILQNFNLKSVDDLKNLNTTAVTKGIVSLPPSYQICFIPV
T1 sequence (P33261 whole entry): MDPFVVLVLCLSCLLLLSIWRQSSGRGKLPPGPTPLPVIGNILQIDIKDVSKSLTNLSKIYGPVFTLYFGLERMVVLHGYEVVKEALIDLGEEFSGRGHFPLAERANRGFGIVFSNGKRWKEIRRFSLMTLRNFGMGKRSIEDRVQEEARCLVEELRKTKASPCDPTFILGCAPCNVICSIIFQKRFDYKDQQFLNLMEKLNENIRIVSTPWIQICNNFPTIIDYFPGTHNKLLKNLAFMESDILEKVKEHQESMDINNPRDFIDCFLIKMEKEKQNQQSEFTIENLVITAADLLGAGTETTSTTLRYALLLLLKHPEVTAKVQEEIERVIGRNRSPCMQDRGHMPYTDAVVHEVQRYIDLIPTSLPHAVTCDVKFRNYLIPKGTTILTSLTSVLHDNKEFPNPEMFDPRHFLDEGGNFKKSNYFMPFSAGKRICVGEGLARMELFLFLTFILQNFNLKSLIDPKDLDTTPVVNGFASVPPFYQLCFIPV

SMILES | IC50 [1] [µM] | inhibition at 20 µM ([2]; human, CYP2C8 enzyme (BD Bioscience), read-out: IC50 (μM) or % Inhibition at 20 μM, CYP450 2C8) [%] | IC50 (μM) or % Inhibition at 20 μM, CYP450 2B6 [3] | IC50 [4] [µM] | EC50 [5] [µM] | CC50 at 72 h [6] [µM] | IC50 (μM) or % Inhibition at 20 μM, CYP450 2C8 [2] | inhibition at 20 µM ([3]; human, CYP2B6 enzyme (BD Bioscience cat #459220), probe 7-Ethoxy-4-trifluoromethylcoumarin, read-out: IC50 (μM) or % Inhibition at 20 μM, CYP450 2B6) [%]
COc1ccc2c(O[C@H]3CC[C@H]4C(=O)N(C)CCCC/C=C\[C@@H]5C[C@@]5(C(=O)NS(=O)(=O)C5(C)CC5)NC(=O)[C@@H]4C3)cc(-c3nc(C(F)(F)F)cs3)nc2c1C [Compound 51] | 9 to 15 | 10 to 20 | No Inhibition | 20 to 25 | < 1 | 10 to 75 |  | 
C#Cc1csc(-c2cc(O[C@H]3CC[C@H]4C(=O)N(C)CCCC/C=C\[C@@H]5C[C@@]5(C(=O)NS(=O)(=O)C5(C)CC5)NC(=O)[C@@H]4C3)c3ccc(OC)c(C)c3n2)n1 [Compound 52, (1aR,3aR,5S,7aR,15aS,Z)-5-(2-(4-ethynylthiazol-2-yl)-7-methoxy-8-methylquinolin-4-yloxy)-9-methyl-N-(1-methylcyclopropylsulfonyl)-3,8-dioxo-1a,2,3,3a,4,5,6,7,7a,8,9,10,11,12,13,15a-hexadecahydro-1H-benzo[c]cyclopropa[g][1,6]diazacyclotetradecine-1a-carboxamide] | 9 to 15 |  |  | 15 to 20 | < 1 | > 75 | No Inhibition | 30 to 40
